Key:
[1] = system: HeLa cells; assay: Assay 1 cell proliferation measurement (CTG, 72 h), HeLa; format: cell-based, human; settings: Homo sapiens, HeLa; Assay 1, 72 h, Cell Titer Glo; read-out: HeLa IC50 [nM] (Cervical cancer)
In short: (§1)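 Seed cells, incubate overnight at 37 °C; measure baseline viability (CTG, 0 h plate); dose compound in a 10-step 2.5-fold series (max generally 100 nM final, DMSO 0.3%) for 72 h; read CTG luminescence; fit IC50 with 4 parameters.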

[2] = system: SK-MEL-3 cells; assay: Assay 1 cell proliferation measurement (CTG, 72 h), SK-MEL-3; format: cell-based, human; settings: Homo sapiens, SK-MEL3; Assay 1, 72 h, Cell Titer Glo; read-out: SK-MEL-3 IC50 [nM] (melanoma)
In short: as §1

[3] = molecular target: human full length PDE3A (Homo sapiens (Human), UniProt Q14432); assay: Assay 4 PDE3A enzyme inhibition (3H-cAMP SPA); format: biochemical; settings: Sf9 cell extract
In short: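 Enzyme: Sf9 extract with overexpressed full-length PDE3A; substrate [8-3H]cAMP, 0.025 μCi/well; 60 min, room temperature, Tris/HCl pH 7.5 buffer with MgCl2, EDTA, BSA.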

[4] = molecular target: human full length PDE3B (Homo sapiens (Human), UniProt Q13370); assay: Assay 5 PDE3B enzyme inhibition (3H-cAMP SPA); format: biochemical; settings: Sf9 cell extract
In short: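 Sf9 cell extract expressing human full-length PDE3B, diluted for linear kinetics (<70% substrate use), in 50 mM Tris/HCl pH 7.5, 8.3 mM MgCl2, 1.7 mM EDTA. [8-3H]cAMP substrate, 60 min at room temperature; stopped with yttrium SPA beads, scintillation counting. IC50 from sigmoidal activity vs log concentration curves.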

[5] = Assay 6 in vitro metabolic stability in cryopreserved human hepatocytes (CL, Fmax); format: in vitro ADME; settings: 1 μM test compound; for Clblood: hepatic in vivo blood clearance calculated (well-stirred) from half-life in cryopreserved human hepatocytes; for Fmax: maximal oral bioavailability calculated from half-life in cryopreserved human hepatocytes
Procedure: Assay 6 Method for Human Cryo Hepatocytes:
Investigation of In Vitro Metabolic Stability in Cryopreserved Human Hepatocytes (Including Calculation of Hepatic In Vivo Blood Clearance (CL) and Maximal Oral Bioavailability (Fmax))
Cryopreserved Hepatocytes (e.g. purchased from Celsis InVitroTechnologies) were briefly thawed, washed with 45 mL pre-warmed in in vitro GRO HT medium and centrifuged for 5 min at 50×g. The cell pellet was resuspended in 5 ml of Krebs-Henseleit […] (KHB). Cell viability was determined by trypan blue exclusion.
For the metabolic stability assay liver cells were distributed in WME containing 5% FCS to glass vials at a density of 1.0×10^6 vital cells/ml. The test compound was added to a final concentration of 1 μM. During incubation, the hepatocyte suspensions were continuously shaken at 580 rpm and aliquots were taken at 2, 8, 16, 30, 45 and 90 min, to which equal volumes of cold methanol were immediately added. Samples were frozen at −20° C. over night, after subsequently centrifuged for 15 minutes at 3000 rpm and the supernatant was analyzed with an Agilent 1290 HPLC-system with LCMS/MS detection.
The half-life of a test compound was determined from the concentration-time plot. From the half-life the intrinsic clearances were calculated. Together with the additional parameters liver blood flow, amount of liver cells in vivo and in vitro. The hepatic in vivo blood clearance (CL) and the maximal oral bioavailability (Fmax) was calculated.

Sequence of human full length PDE3B (Q13370 whole entry): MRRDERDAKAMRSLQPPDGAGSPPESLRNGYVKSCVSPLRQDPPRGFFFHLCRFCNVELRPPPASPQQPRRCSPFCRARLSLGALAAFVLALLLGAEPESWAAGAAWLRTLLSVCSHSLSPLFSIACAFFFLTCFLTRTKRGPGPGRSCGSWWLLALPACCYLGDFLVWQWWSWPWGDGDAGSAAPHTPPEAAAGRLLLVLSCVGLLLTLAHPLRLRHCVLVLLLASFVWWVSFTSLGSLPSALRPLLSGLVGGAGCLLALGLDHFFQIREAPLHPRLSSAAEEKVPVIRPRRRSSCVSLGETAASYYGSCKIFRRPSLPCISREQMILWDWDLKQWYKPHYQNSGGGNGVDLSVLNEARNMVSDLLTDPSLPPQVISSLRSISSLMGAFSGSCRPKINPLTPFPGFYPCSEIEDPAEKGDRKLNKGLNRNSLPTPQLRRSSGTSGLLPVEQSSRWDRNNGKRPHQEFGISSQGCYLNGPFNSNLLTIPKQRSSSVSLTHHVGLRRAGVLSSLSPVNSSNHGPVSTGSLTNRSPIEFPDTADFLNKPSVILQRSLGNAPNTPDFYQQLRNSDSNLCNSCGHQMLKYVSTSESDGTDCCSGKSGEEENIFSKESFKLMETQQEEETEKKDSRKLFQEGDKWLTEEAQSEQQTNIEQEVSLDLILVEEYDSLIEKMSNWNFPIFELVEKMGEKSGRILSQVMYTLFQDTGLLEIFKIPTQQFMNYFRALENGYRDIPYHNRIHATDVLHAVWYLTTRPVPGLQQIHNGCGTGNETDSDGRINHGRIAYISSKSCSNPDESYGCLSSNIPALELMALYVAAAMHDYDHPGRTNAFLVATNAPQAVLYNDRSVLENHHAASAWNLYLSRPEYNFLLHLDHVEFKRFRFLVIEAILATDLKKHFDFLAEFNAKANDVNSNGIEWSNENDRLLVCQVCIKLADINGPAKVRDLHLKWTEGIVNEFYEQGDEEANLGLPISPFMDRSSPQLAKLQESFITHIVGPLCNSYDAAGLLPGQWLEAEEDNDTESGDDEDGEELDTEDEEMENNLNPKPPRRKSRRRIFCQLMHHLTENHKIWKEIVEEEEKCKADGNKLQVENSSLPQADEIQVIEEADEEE
Sequence of human full length PDE3A (Q14432 whole entry): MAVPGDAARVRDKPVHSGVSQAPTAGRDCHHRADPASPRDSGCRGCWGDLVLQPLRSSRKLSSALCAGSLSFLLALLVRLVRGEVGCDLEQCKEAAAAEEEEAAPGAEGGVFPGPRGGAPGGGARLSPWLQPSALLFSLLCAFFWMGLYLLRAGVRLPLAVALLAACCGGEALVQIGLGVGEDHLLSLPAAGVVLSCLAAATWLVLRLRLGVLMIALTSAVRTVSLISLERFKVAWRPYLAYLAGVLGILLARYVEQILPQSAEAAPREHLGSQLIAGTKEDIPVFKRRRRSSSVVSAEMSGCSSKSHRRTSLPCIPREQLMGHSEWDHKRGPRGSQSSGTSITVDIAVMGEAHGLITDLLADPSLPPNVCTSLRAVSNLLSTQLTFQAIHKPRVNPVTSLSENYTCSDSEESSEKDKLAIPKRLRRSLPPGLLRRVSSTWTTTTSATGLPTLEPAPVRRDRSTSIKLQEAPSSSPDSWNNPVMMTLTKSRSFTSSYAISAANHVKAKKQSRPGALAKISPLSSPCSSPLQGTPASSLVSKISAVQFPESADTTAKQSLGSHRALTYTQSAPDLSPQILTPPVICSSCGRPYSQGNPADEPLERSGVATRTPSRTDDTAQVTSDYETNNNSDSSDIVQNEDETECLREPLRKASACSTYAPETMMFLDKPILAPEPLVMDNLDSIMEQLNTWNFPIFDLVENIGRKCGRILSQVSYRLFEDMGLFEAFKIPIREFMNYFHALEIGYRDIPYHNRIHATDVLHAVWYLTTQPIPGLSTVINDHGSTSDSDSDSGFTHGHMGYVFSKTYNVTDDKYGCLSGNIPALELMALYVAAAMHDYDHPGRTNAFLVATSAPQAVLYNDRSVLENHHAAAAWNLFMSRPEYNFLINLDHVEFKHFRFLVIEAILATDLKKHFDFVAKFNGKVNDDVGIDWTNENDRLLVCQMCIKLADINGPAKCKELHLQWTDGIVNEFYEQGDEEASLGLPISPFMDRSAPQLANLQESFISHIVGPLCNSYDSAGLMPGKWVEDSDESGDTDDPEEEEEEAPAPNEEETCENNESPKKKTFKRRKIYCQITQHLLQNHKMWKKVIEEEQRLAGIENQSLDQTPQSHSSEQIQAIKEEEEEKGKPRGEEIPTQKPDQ

SMILES	IC50 [1]	IC50 [2]	IC50 [3]	IC50 [4]	Clblood [5]	Fmax [5]
COC/C=C/c1ccc(C2=NNC(=O)OC2)cc1C(F)(F)F [Example 140, 5-{4-[3-Methoxyprop-1-en-1-yl]-3-(trifluoromethyl)phenyl}-3,6-dihydro-2H-1,3,4-oxadiazin-2-one]	1 nM	1 nM	58 nM	80 nM	8.5 mL/min/kg	61%
O=C1NN=C(c2ccc(-c3cnn(C(F)F)c3)c(C(F)F)c2)CO1 [Example 195, 5-{3-(Difluoromethyl)-4-[1-(difluoromethyl)-1H-pyrazol-4-yl]phenyl}-3,6-dihydro-2H-1,3,4-oxadiazin-2-one]	2 nM	5 nM	58 nM	77 nM	<0.17 mL/min/kg	100%
CN(C)CCN(C)c1ccc(C2=NNC(=O)OC2)cc1C(F)(F)F [Example 324, 5-[4-{[2-(dimethylamino)ethyl](methyl)amino}-3-(trifluoromethyl)phenyl]-3,6-dihydro-2H-1,3,4-oxadiazin-2-one]	> 100 nM	> 100 nM	> 1000 nM	> 1000 nM	–	–
Cc1nc2cc(-c3ccc(C4=NNC(=O)OC4)cc3C(F)(F)F)ccc2s1 [Example 325, 5-[4-(2-methyl-1,3-benzothiazol-5-yl)-3-(trifluoromethyl)phenyl]-3,6-dihydro-2H-1,3,4-oxadiazin-2-one]	> 100 nM	> 100 nM	56 nM	150 nM	–	–
Cc1nc2cc(-c3ccc(C4=NNC(=O)OC4)cc3C(F)(F)F)ccc2[nH]1 [Example 326, 5-[4-(2-methyl-1H-benzimidazol-5-yl)-3-(trifluoromethyl)phenyl]-3,6-dihydro-2H-1,3,4-oxadiazin-2-one]	> 100 nM	> 100 nM	17 nM	30 nM	–	–
Cc1n[nH]c2cc(-c3ccc(C4=NNC(=O)OC4)cc3C(F)(F)F)ccc12 [Example 327, 5-[4-(3-methyl-1H-indazol-6-yl)-3-(trifluoromethyl)phenyl]-3,6-dihydro-2H-1,3,4-oxadiazin-2-one]	> 100 nM	> 100 nM	11 nM	16 nM	–	–
O=C1NN=C(c2ccc(C3=CCNCC3)c(C(F)(F)F)c2)CO1 [Example 328, 5-[4-(1,2,3,6-tetrahydropyridin-4-yl)-3-(trifluoromethyl)phenyl]-3,6-dihydro-2H-1,3,4-oxadiazin-2-one]	47 nM	> 100 nM	74 nM	91 nM	–	–
O=C1NN=C(c2ccc(C3=CCOC3)c(C(F)F)c2)CO1 [Example 329, 5-[3-(difluoromethyl)-4-(2,5-dihydrofuran-3-yl)phenyl]-3,6-dihydro-2H-1,3,4-oxadiazin-2-one]	41 nM	64 nM	100 nM	93 nM	–	–
O=C1NN=C(c2ccc(F)c(C(F)(F)F)c2)CO1 [Intermediate 66, 5-[4-Fluoro-3-(trifluoromethyl)phenyl]-3,6-dihydro-2H-1,3,4-oxadiazin-2-one]	56 nM	> 100 nM	> 1000 nM	> 1000 nM	–	–
CC(C)(C)OC(=O)NCCNc1ccc(C2=NNC(=O)OC2)cc1C(F)(F)F [Intermediate 67, tert-Butyl {2-[4-(2-oxo-3,6-dihydro-2H-1,3,4-oxadiazin-5-yl)-2-(trifluoromethyl)anilino]ethyl} carbamate]	> 100 nM	> 100 nM	6 nM	7 nM	–	–
O=C1NN=C(c2ccc(Cl)c(OC(F)(F)F)c2)CO1 [Intermediate 73, 5-[4-Chloro-3-(trifluoromethoxy)phenyl]-3,6-dihydro-2H-1,3,4-oxadiazin-2-one]	58 nM	> 100 nM	720 nM	> 1000 nM	–	–
Cc1cc(C2=NNC(=O)OC2)ccc1Cl [Intermediate 76, 5-(4-Chloro-3-methylphenyl)-3,6-dihydro-2H-1,3,4-oxadiazin-2-one]	40 nM	75 nM	375 nM	130 nM	–	–
O=C1NN=C(c2ccc(Br)c(C(F)(F)F)c2)CO1 [Intermediate 78, 5-[4-bromo-3-(trifluoromethyl)phenyl]-3,6-dihydro-2H-1,3,4-oxadiazin-2-one]	8 nM	20 nM	140 nM	180 nM	–	–

Second part, the compound after the results:

IC50 [1]	IC50 [2]	IC50 [3]	IC50 [4]	Clblood [5]	Fmax [5]	SMILES
15 nM	33 nM	440 nM	240 nM	3.17 mL/min/kg	85%	Cc1cc(F)ccc1-c1ccc(C2=NNC(=O)OC2)cc1C [Example 9, 5-(4′-Fluoro-2,2′-dimethylbiphenyl-4-yl)-3,6-dihydro-2H-1,3,4-oxadiazin-2-one]
20 nM	38 nM	> 1000 nM	> 1000 nM	3.17 mL/min/kg	86%	O=C1NN=C(c2ccc(-c3ccc(Cl)cc3)c(OC(F)(F)F)c2)CO1 [Example 71, 5-[4′-Chloro-2-(trifluoromethoxy)biphenyl-4-yl]-3,6-dihydro-2H-1,3,4-oxadiazin-2-one]
2 nM	4 nM	72 nM	81 nM	5.33 mL/min/kg	76%	O=C1NN=C(c2ccc(-c3ccc(F)cc3F)c(F)c2)CO1 [Example 111, 5-(2,2′,4′-Trifluoro[1,1′-biphenyl]-4-yl)-3,6-dihydro-2H-1,3,4-oxadiazin-2-one]
4 nM	7 nM	210 nM	120 nM	10.3 mL/min/kg	53%	Cc1cc(F)ccc1-c1ccc(C2=NNC(=O)OC2)cc1F [Example 162, 5-(2,4′-Difluoro-2′-methyl[1,1′-biphenyl]-4-yl)-3,6-dihydro-2H-1,3,4-oxadiazin-2-one]
6 nM	14 nM	170 nM	130 nM	7.33 mL/min/kg	67%	O=C1NN=C(c2ccc(-c3ccc(F)cc3)c(C(F)F)c2)CO1 [Example 198, 5-[2-(Difluoromethyl)-4′-fluoro[1,1′-biphenyl]-4-yl]-3,6-dihydro-2H-1,3,4-oxadiazin-2-one]
2 nM	5 nM	210 nM	200 nM	15.7 mL/min/kg	29%	O=C1NN=C(c2ccc(-c3ccc(Cl)cc3)c(C(F)F)c2)CO1 [Example 199, 5-[4′-Chloro-2-(difluoromethyl)[1,1′-biphenyl]-4-yl]-3,6-dihydro-2H-1,3,4-oxadiazin-2-one]
12 nM	–	–	–	14.2 mL/min/kg	35%	CCC(CNc1ccc(C2=NNC(=O)OC2)cc1C(F)(F)F)OC (stereo not drawn) [Example 281, 5-{4-[(2-methoxybutyl)amino]-3-(trifluoromethyl)phenyl}-3,6-dihydro-2H-1,3,4-oxadiazin-2-one]
29 nM	53 nM	610 nM	490 nM	–	–	O=C1NN=C(c2ccc(Cl)c(C(F)(F)F)c2)CO1 [Intermediate 64, 5-[4-Chloro-3-(trifluoromethyl)phenyl]-3,6-dihydro-2H-1,3,4-oxadiazin-2-one]
6 nM	11 nM	34 nM	100 nM	–	–	C[C@@H]1OC(=O)NN=C1c1ccc(Cl)c(C(F)(F)F)c1 [Intermediate 74, (6S)-5-[4-chloro-3-(trifluoromethyl)phenyl]-6-methyl-3,6-dihydro-2H-1,3,4-oxadiazin-2-one]
22 nM	45 nM	240 nM	710 nM	–	–	C[C@@H]1OC(=O)NN=C1c1ccc(F)c(C(F)(F)F)c1 [Intermediate 75, (6S)-5-(-[(4-Fluoro-3-(trifluoromethyl)phenyl)-)]-6-methyl-3,6-dihydro-2H-1,3,4-oxadiazin-2-one]
40 nM	65 nM	150 nM	330 nM	–	–	O=C1NN=C(c2ccc(Br)c(C(F)F)c2)CO1 [Intermediate 77, 5-[4-Bromo-3-(difluoromethyl)phenyl]-3,6-dihydro-2H-1,3,4-oxadiazin-2-one]

Reference: US11427553B2, “Dihydrooxadiazinones” (Bayer Aktiengesellschaft, priority 2017, dated 2022)
